Test results: US7601838B2, “2-Alkyl/aryl sulphonyl-1,2,3,4-tetrahydro-9H-pyrido (3,4-b) indole-3-carboxylic acid esters/amides useful as antithrombotic agents” (Council of Scientific and Industrial Research, priority 2004, dated 2009)

Key:
[1] = test system: collagen and epinephrine induced thrombosis in mice; assay: Effect on mouse thrombosis: collagen and adrenaline induced pulmonary thromboembolism; format: in vivo; conditions: for protection against collagen and epinephrine induced thrombosis (in words): 30 μM/kg
Experimental: Pulmonary thromboembolism was induced by following a method of Diminno and Silver^(1). Test compounds (30 μM/Kg) or vehicle were administered orally 60 min prior to the thrombotic challenge. A mixture of collagen (150 μg/ml) and adrenaline (50 μg/mL) was administered by the rapid intravenous injection into the tail vein to induce hind limb paralysis or death. A group of 10 animals were used to evaluate the effect of test compound, while 5 mice were used to assess effect of a standard drug, aspirin and a group of vehicle treated (n=5) mice was also used each experiment.
% Protection was expressed as: […]
Ptest is the number of animals paralyzed/dead in the test compound-treated group, and Pcontrol is the number of animals paralyzed/dead in vehicle treated group.

[2] = test system: mouse-tail Bleeding time; assay: Effect on mouse-tail bleeding time; conditions: mice
Experimental: The tail 2 mm from tip was incised and the blood oozed was soaked with filter paper till the bleeding stops. The time elapsed from the tip incision to the stoppage of bleeding was determined as the bleeding time. Test compound (30 μM/kg), aspirin or vehicle was given orally 60 min prior to the tail incision. Each group consisted of 5 mice.

[3] = test system: rat platelet aggregation; assay: Ex vivo effect on rat platelet aggregation (PRP, aggregometer); format: cell-based, Sprague Dawley rats; conditions: 30 μM/kg ip; for % Aggregation / % Inhibition: rat PRP; for inhibition of calcium ionophore A23187 induced platelet aggregation (in words): A23187 (2.5 μg/ml); for inhibition of calcium ionophore A23187 induced platelet aggregation (in words) / inhibition of ADP induced platelet aggregation (in words) / inhibition of PMA induced platelet aggregation (in words) / inhibition of collagen induced platelet aggregation (in words) / inhibition of thrombin induced platelet aggregation (in words): rat; for inhibition of ADP induced platelet aggregation (in words): ADP (10 μM); for inhibition of PMA induced platelet aggregation (in words): PMA (1.5 μM); for inhibition of collagen induced platelet aggregation (in words): collagen (10 μg/ml); for inhibition of thrombin induced platelet aggregation (in words): thrombin (0.64 U/ml)
Experimental: Sodium citrate: The blood was centrifuged at 275×g for 20 min and the platelet rich plasma (PRP) was collect. The remaining blood was further centrifuged at 1500 g for 15 min at 20° C. to obtain platelet poor plasma (PPP). The platelet count in the PRP was adjusted to 2×10^8 cells/ml by using PPP. Adenosine-5′-diphosphate (ADP), thrombin, collagen, calcium ionophore A23187 or phorbol myristate ester (PMA) induced aggregation was monitored on a dual channel aggregometer (Chrono-log, USA). The test compound was incubated with PRP or 5 min before the addition of aggregation on inducing agent. Percent inhibition of the test compounds at various concentrations was calculated as follows: […]
(§1) Effect on venous thrombosis model in rabbit: The selected compounds were evaluated at 10 μM/Kg and 30 μM/kg dose for their efficacy against stasis induced thrombosis in LPS treated rabbits. […] Ex vivo effect of selective compounds on rat platelet aggregation: Blood was collected in sodium citrate to obtain PRP and evaluate the ex vivo effect of selective compounds ((i), (ii), (iii) at 30 μM/kg administered by the ip route) against ADP, collagen, phorbol myristate ester (PMA) calcium ionophore (A23187), or thrombin induced aggregation. It was observed that all these compounds were consistent against collagen-induced platelet aggregation (Table 3). (iii) inhibited ADP (10 μM), collagen (10 μg/ml), PMA (1.5 μM), and thrombin (0.64 U/ml) induced platelet aggregation while no inhibition was found against calcium ionophore A23187 (2.5 μg/ml) induced platelet aggregation. […] Effect on clotting parameters: The selected compounds were also tested in vitro for their effect on thrombin time (TT), prothrombin time (PT) and activated partial thromboplastin time (aPTT) at 100 μg/ml and 200 μg/ml in vitro (Table 4). The test compounds at 100 μg/ml had no significant effect of on these parameters. Some effect was though seen on PT at 200 μg/ml concentration, but the concentration seems to be quite high.

[4] = test system: stasis induced thrombosis in LPS treated rabbits; assay: Rabbit venous thrombosis model (stasis induced thrombosis in LPS treated rabbits); format: in vivo, New Zealand white strain rabbits
Experimental: (§2) [formula] 1.4 Evaluation of coagulation parameters: Blood was collected by cardiac puncture from ether-anaesthetized rat using a syringe containing 3.2% tri-sodium citrate (9:1, v/v). Plasma was obtained by centrifugation of citrated blood at 2500×g for 15 min at 20° C. Stock solutions of the test compounds were prepared freshly in DMSO and were diluted in DMSO. Thrombin time (TT), prothrombin time (PT) and activated partial thromboplastin time (aPTT) were evaluated according to manufacturer's instructions supplied with kits (Stago, France) and measured by Coagulometer (Stago, France)^(4). In each set of experiment effect of DMSO on these parameters was also assessed and was used to calculate change in TT, PT or aPTT. 1.5 Rabbit venous thrombosis model: Experiments were performed on New Zealand white strain rabbits (2-3 kg) either sex. Escherichia coli LPS strain 1055:B5 (Sigma Chemicals, USA) was injected intravenously via ear vein (1 μg/kg)^(5,6). Jugular veins on both sides were exposed and dissected free from surrounding tissue. Two loose surer were placed 1.5 cm apart and all collateral veins were ligated. Four hours after E. coli endotoxin injection (animal is watched for any signs of hypersensitivity reaction during this period), stasis was established and maintained for 45 min by tightening the two sutures. Ligated segments were removed and opened longitudinally and the thrombus was carefully removed and weighed. Heparin sodium (Beparine from beef intestinal mucosa ≧140 USP units/mg; Biological E. Limited, India) was given in doses of (0.5, 0.25, 0.1 mg/kg i.v., via ear vein) 5 min before stasis. 1.6 Effect of compound (i) on human platelet aggregation in vitro: Platelet aggregation study was done on human platelets following isolation of PRP from the human blood as described above (1.3). Aggregation was induced by collagen (10 μg/ml, 5 μg/ml), ADP (10 μM) and thrombin (0.5 U/ml). 2. Results: Effect of test compounds is indicated in the following table (1) against collagen and epinephrine induced thrombosis in mice, which is a primary screening model to detect antithrombotic efficacy of the test agents. At the same dose these compounds were also evaluated for their effect on the bleeding time in mouse (Table 1).
as §1
Values are Mean±; Compound (i); n=2, Compound (ii); n=4, Compound (iii), n=4 [n is no. of observations in 2 or more animals at 10 μM/Kg or 30 μM/Kg p.o. administered 2 h prior to the stasis] or vehicle control [n=10 observations in five animals]. In heparin treated group n=6 observations for each dose in nine animals.

[5] = test system: thrombin time (TT), prothrombin time (PT) and activated partial thromboplastin time (aPTT); assay: Evaluation of coagulation parameters (TT, PT, aPTT) in rat plasma in vitro; format: biochemical
Experimental: as §2, §1

[6] = 30 μM/kg orally 60 min prior to collagen + adrenaline challenge
[7] = 10 μM/Kg dose p.o. 2 h prior to the stasis
[8] = 30 μM/Kg dose p.o. 2 h prior to the stasis

SMILES	Antithrombotic activity (AT) (% protection) [1, 6]	% Aggregation ([3]; A23187 (2.5 μg/ml) induced) [%]	% Inhibition ([3]; A23187 (2.5 μg/ml) induced) [%]	inhibition of calcium ionophore A23187 induced platelet aggregation (in words) [3]	% Aggregation ([3]; ADP (10 μM) induced) [%]	% Inhibition ([3]; ADP (10 μM) induced) [%]	inhibition of ADP induced platelet aggregation (in words) [3]	% Aggregation ([3]; Collagen (10 μg/ml) induced) [%]	% Inhibition ([3]; Collagen (10 μg/ml) induced) [%]	% Aggregation ([3]; PMA (1.5 μM) induced) [%]	% Inhibition ([3]; PMA (1.5 μM) induced) [%]	inhibition of PMA induced platelet aggregation (in words) [3]	% Aggregation ([3]; Thrombin (0.64 U/ml) induced) [%]	% Inhibition ([3]; Thrombin (0.64 U/ml) induced) [%]	inhibition of collagen induced platelet aggregation (in words) [3]	inhibition of thrombin induced platelet aggregation (in words) [3]	% Reduction (thrombus wt.) [4, 8] [%]	Thrombus wt. [4, 8]	Activated partial thromboplastin time (aPTT) % Change ([5]; 100 μg/ml in vitro) [%]	Prothrombin time (PT) % Change ([5]; 100 μg/ml in vitro) [%]	further results
CC(=O)Oc1ccccc1C(=O)O [Aspirin, reference compound]																					Antithrombotic activity (AT) (% protection) ([1]; 30 mg/Kg (aspirin, standard drug)): 38 ± 3 (n = 24) %; Bleeding time (BT) % increase (1 hr) ([2]; 30 mg/Kg (aspirin)): 125 ± 6 (n = 30) %
COC(=O)C1Cc2c([nH]c3ccccc23)CN1S(=O)(=O)c1ccccc1C(F)(F)F (racemic) [j, 2[2-trifluoromethylbenzenesulfonyl]-1,2,3,4,-tetrahydro-9H-pyrido[3,4-b]in-dole-3-carboxylic acid ester]	56%																				Bleeding time (BT) % increase (1 hr) ([2]; 30 μM/kg orally 60 min prior to tail incision): 150%
COc1ccc(S(=O)(=O)N2Cc3[nH]c4ccccc4c3CC2C(N)=O)cc1 (centres unmarked) [Compound (ii), 2[-4-methoxybenzenesulfonyl]-1,2,3,4,-tetrahydro-9H-pyrido[3,4-b]indole-3-carboxylic acid amide]	70 ± 10 (n = 3) %	51 ± 5	54 ± 4	inhibited	35 ± 5	26 ± 10	inhibited	5 ± 1	79 ± 7	44 ± 12	26 ± 0.3	inhibited	44 ± 10	4 ± 10	inhibited	did not inhibit	88	5 ± 4	13 ± 7	9 ± 5	% Reduction (thrombus wt.) [4, 7]: −67%; Thrombus wt. [4, 7]: 79 ± 9; Thrombin time (TT) % Change ([5]; 100 μg/ml in vitro): 9 ± 5%; Activated partial thromboplastin time (aPTT) % Change ([5]; 200 μg/ml in vitro): 11 ± 4%; Prothrombin time (PT) % Change ([5]; 200 μg/ml in vitro): 14 ± 7%; Thrombin time (TT) % Change ([5]; 200 μg/ml in vitro): 9 ± 4%; protection against collagen and epinephrine induced thrombosis (in words) [1]: exhibited significant protection
NC(=O)C1Cc2c([nH]c3ccccc23)CN1S(=O)(=O)c1ccc2ccccc2c1 (centres unmarked) [Compound (iii), 2-[2-naphthalenesulfonyl]-1,2,3,4,-tetrahydro-9H-pyrido[3,4-b]indole-3-carboxylic acid amide]	70 ± 0 (n = 3) %	57 ± 6	−25 ± 2	no inhibition	2 ± 0.4	94 ± 0.2	inhibited	2.5 ± 0	47 ± 13	38 ± 13	32 ± 5	inhibited	28 ± 3	40 ± 6	inhibited	inhibited	57	11 ± 5	11 ± 4	−0.24 ± 0.8	Thrombin time (TT) % Change ([5]; 100 μg/ml in vitro): 10 ± 4%; Activated partial thromboplastin time (aPTT) % Change ([5]; 200 μg/ml in vitro): 10 ± 8%; Prothrombin time (PT) % Change ([5]; 200 μg/ml in vitro): 9 ± 0.2%; Thrombin time (TT) % Change ([5]; 200 μg/ml in vitro): 6 ± 1%; protection against collagen and epinephrine induced thrombosis (in words) [1]: exhibited significant protection
